Laboratory results as given in patent US20140213446A1, “HERBICIDAL COMPOSITIONS AND METHODS USING COMBINATIONS OF 4-AMINO-3-CHLORO-6-(4-CHLORO-2-FLUORO-3-METHOXYPHENYL)PYRIDINE-2-CARBOXYLIC ACID OR A DERIVATIVE THEREOF AND AN ARYLOXYPHENOXY PROPIONATE ACCASE INHIBITOR HERBICIDE” (DOW AGROSCIENCES LLC, priority 2013, published 2014).
Where “and” joins values, the source holds several entries; their conditions need not be identical. Equal entries are not always repeated.

Tests used:
Assay in all cases: Postemergent herbicidal activity, greenhouse
Format in all cases: in vivo
[1] = system: BRSNW Brassica napus (winter oilseed rape)
Procedure: (§1) Evaluation of Postemergent Herbicidal Activity. Seeds or nutlets of the desired test plant species were planted in Sun Gro Metro-Mix® 360 planting mixture, which typically has a pH of 6.0 to 6.8 and an organic matter content of about 30 percent, in plastic pots with a surface area of 64 square centimeters (cm^2). When required to ensure good germination and healthy plants, a fungicide treatment and/or other chemical or physical treatment was applied. The plants were grown for 7-21 days (d) in a greenhouse with an approximate 15 hour (h) photoperiod which was maintained at about 23-29° C. during the day and 22-28° C. during the night. Nutrients and water were added on a regular basis and supplemental lighting was provided with overhead metal halide 1000-Watt lamps as necessary. The plants were employed for testing when they reached the first or second true leaf stage.
(§2) A weighed amount, determined by the highest rate to be tested, of each test compound was placed in a 25 milliliter (mL) glass vial and was dissolved in 4 mL of a 97:3 volume per volume (v/v) mixture of acetone and dimethyl sulfoxide (DMSO) to obtain concentrated stock solutions. […] The concentrated stock solutions obtained were diluted with 20 mL of an aqueous mixture containing acetone, water, isopropyl alcohol, DMSO, Atplus 411F crop oil concentrate, and Triton® X-155 surfactant in a 48.5:39:10:1.5:1.0:0.02 v/v ratio to obtain spray solutions containing the highest application rates. Additional application rates were obtained by serial dilution of 12 mL of the high rate solution into a solution containing 2 mL of a 97:3 v/v mixture of acetone and DMSO and 10 mL of an aqueous mixture containing acetone, water, isopropyl alcohol, DMSO, Atplus 411F crop oil concentrate, and Triton X-155 surfactant in a 48.5:39:10:1.5:1.0:0.02 v/v ratio to obtain ½X, ¼X, ⅛X and 1/16X rates of the high rate. Compound requirements are based upon a 12 mL application volume at a rate of 187 liters per hectare (L/ha). Formulated compounds were applied to the plant material with an overhead Mandel track sprayer equipped with 8002E nozzles calibrated to deliver 187 L/ha over an application area of 0.503 square meters (m^2) at a spray height of 18 inches ([…]) above the average plant canopy height. Control plants were sprayed in the same manner with the solvent blank.
(§3) Treatments consisted of the methyl ester of 4-amino-3-chloro-6-(4-chloro-2-fluoro-3-methoxyphenyl)pyridine-2-carboxylic acid (Cmpd 1) as technical grade material and fluazifop-P-butyl (Fusilade® DX), haloxyfop-P-methyl (GALLANT® super), and quizalofop-P-ethyl (Assure® II) alone and in combination. The form of compound of formula (I) and fluazifop-P-butyl, haloxyfop-P-methyl, and quizalofop-P-ethyl were applied on an acid equivalent basis.
(§4) The treated plants and control plants were placed in a greenhouse as described above and watered by subirrigation to prevent wash-off of the test compounds. After 14 d, the condition of the test plants as compared with that of the untreated plants was determined visually and scored on a scale of 0 to 100 percent where 0 corresponds to no injury and 100 corresponds to complete kill.
(§5) Results of testing mixtures in accordance with this disclosure and of the components of the mixtures separately against various common weeds in greenhouse trials are reported in the following tables. The reported values are of percent (%) control or percent (%) injury, visually rated. Colby's equation was used to determine the herbicidal effects expected from the mixtures (Colby, S. R. Calculation of the synergistic and antagonistic response of herbicide combinations. Weeds 1967, 15, 20-22.).
(§6) More specifically, the following equation was used to calculate the expected activity of mixtures containing two active ingredients, A and B:
(§7) A=observed efficacy of active ingredient A at the same concentration as used in the mixture; B=observed efficacy of active ingredient B at the same concentration as used in the mixture. […]

[2] = system: SETFA Setaria faberi Herrm. (giant foxtail)
Procedure: as §1, §2, §3, §4, §5, §6, §7

[3] = system: EPHHL Euphorbia heterophylla L. (wild poinsettia)
Procedure: as §1, §2, §3, §4, §5, §6, §7

[4] = system: ABUTH Abutilon theophrasti Medik. (velvetleaf)
Procedure: as §1, §2, §3, §4, §5, §6, §7

[5] = system: GLXMA Glycine max (soybean)
Procedure: as §1, §2, §3, §4, §5, §6, §7

[6] = system: IPOHE Ipomoea hederacea (L.) Jacq. (ivyleaf momingglory)
Procedure: as §1, §2, §3, §4, §5, §6, §7

[7] = system: VIOTR Viola tricolor L. (wild violet)
Procedure: as §1, §2, §3, §4, §5, §6, §7

[8] = system: AVEFA Avena fatua L. (wild oat)
Procedure: as §1, §2, §3, §4, §5, §6, §7

[9] = system: SORVU Sorghum vulgare (common sorghum)
Procedure: as §1, §2, §3, §4, §5, §6, §7

[10] = system: STEME Stellaria media (L.) Vill. (common chickweed)
Procedure: as §1, §2, §3, §4, §5, §6, §7

[11] = system: AMARE Amaranthus retroflexus L. (redroot pigweed)
Procedure: as §1, §2, §3, §4, §5, §6, §7

[12] = system: CIRAR Cirsium arvense (L.) Scop. (Canada thistle)
Procedure: as §1, §2, §3, §4, §5, §6, §7

[13] = system: DIGSA Digitaria sanguinalis (L.) Scop. (large crabgrass)
Procedure: as §1, §2, §3, §4, §5, §6, §7

[14] = system: CYPES Cyperus esculentus L. (yellow nutsedge)
Procedure: as §1, §2, §3, §4, §5, §6, §7

[15] = system: HELAN Helianthus annuus L. (common sunflower)
Procedure: as §1, §2, §3, §4, §5, §6, §7

[16] = system: CHEAL Chenopodium album L. (common lambsquarters)
Procedure: as §1, §2, §3, §4, §5, §6, §7

`COC(=O)c1nc(-c2ccc(Cl)c(OC)c2F)cc(N)c1Cl` [Cmpd 1, methyl ester of 4-amino-3-chloro-6-(4-chloro-2-fluoro-3-methoxyphenyl)pyridine-2-carboxylic acid] was tested, and the “Visual Growth Reduction (%) 14 DAA Obs” value ([1]; Cmpd 1 1.25 g ae/ha) was 0%, the “Visual Growth Reduction (%) 14 DAA Obs” value ([1]; Cmpd 1 2.5 g ae/ha) was 5% and the “Visual Growth Reduction (%) 14 DAA Obs” value ([1]; Cmpd 1 5 g ae/ha) was 20%. For the same compound, the “Visual Growth Reduction (%) 14 DAA Obs” value ([2]; Cmpd 1 1.25 g ae/ha) was 0%, the “Visual Growth Reduction (%) 14 DAA Obs” value ([2]; Cmpd 1 2.5 g ae/ha) was 0% and the “Visual Growth Reduction (%) 14 DAA Obs” value ([2]; Cmpd 1 5 g ae/ha) was 30%. The “Visual Growth Reduction (%) 14 DAA Obs” value ([3]; Cmpd 1 1.25 g ae/ha) was 95%, the “Visual Growth Reduction (%) 14 DAA Obs” value ([3]; Cmpd 1 2.5 g ae/ha) was 95% and the “Visual Growth Reduction (%) 14 DAA Obs” value ([3]; Cmpd 1 5 g ae/ha) was 95%. For the same compound, the “Visual Growth Reduction (%) 14 DAA Obs” value ([4]; Cmpd 1 1.25 g ae/ha) was 80%, the “Visual Growth Reduction (%) 14 DAA Obs” value ([4]; Cmpd 1 2.5 g ae/ha) was 85% and the “Visual Growth Reduction (%) 14 DAA Obs” value ([4]; Cmpd 1 5 g ae/ha) was 90%. For the same compound, the “Visual Growth Reduction (%) 14 DAA Obs” value ([5]; Cmpd 1 1.25 g ae/ha) was 70%, the “Visual Growth Reduction (%) 14 DAA Obs” value ([5]; Cmpd 1 2.5 g ae/ha) was 95% and the “Visual Growth Reduction (%) 14 DAA Obs” value ([5]; Cmpd 1 5 g ae/ha) was 97%. For the same compound, the “Visual Growth Reduction (%) 14 DAA Obs” value ([6]; Cmpd 1 1.25 g ae/ha) was 10%, the “Visual Growth Reduction (%) 14 DAA Obs” value ([6]; Cmpd 1 2.5 g ae/ha) was 20% and the “Visual Growth Reduction (%) 14 DAA Obs” value ([6]; Cmpd 1 5 g ae/ha) was 20%. For the same compound, the “Visual Growth Reduction (%) 14 DAA Obs” value ([7]; Cmpd 1 1.25 g ae/ha) was 10%, the “Visual Growth Reduction (%) 14 DAA Obs” value ([7]; Cmpd 1 2.5 g ae/ha) was 10% and the “Visual Growth Reduction (%) 14 DAA Obs” value ([7]; Cmpd 1 5 g ae/ha) was 30%. The “Visual Growth Reduction (%) 14 DAA Obs” value ([8]; Cmpd 1 1.25 g ae/ha) was 0%, the “Visual Growth Reduction (%) 14 DAA Obs” value ([8]; Cmpd 1 2.5 g ae/ha) was 0% and the “Visual Growth Reduction (%) 14 DAA Obs” value ([8]; Cmpd 1 5 g ae/ha) was 0%. For the same compound, the “Visual Growth Reduction (%) 14 DAA Obs” value ([9]; Cmpd 1 1.25 g ae/ha) was 0%, the “Visual Growth Reduction (%) 14 DAA Obs” value ([9]; Cmpd 1 2.5 g ae/ha) was 0% and the “Visual Growth Reduction (%) 14 DAA Obs” value ([9]; Cmpd 1 5 g ae/ha) was 0%. For the same compound, the “Visual Growth Reduction (%) 14 DAA Obs” value ([10]; Cmpd 1 1.25 g ae/ha) was 30%, the “Visual Growth Reduction (%) 14 DAA Obs” value ([10]; Cmpd 1 2.5 g ae/ha) was 20% and the “Visual Growth Reduction (%) 14 DAA Obs” value ([10]; Cmpd 1 5 g ae/ha) was 40%. The “Visual Growth Reduction (%) 14 DAA Obs” value ([11]; Cmpd 1 1.25 g ae/ha) was 50%, the “Visual Growth Reduction (%) 14 DAA Obs” value ([11]; Cmpd 1 2.5 g ae/ha) was 60% and the “Visual Growth Reduction (%) 14 DAA Obs” value ([11]; Cmpd 1 5 g ae/ha) was 90%. The “Visual Growth Reduction (%) 14 DAA Obs” value ([12]; Cmpd 1 1.25 g ae/ha) was 30%, the “Visual Growth Reduction (%) 14 DAA Obs” value ([12]; Cmpd 1 2.5 g ae/ha) was 50% and 30% and the “Visual Growth Reduction (%) 14 DAA Obs” value ([12]; Cmpd 1 5 g ae/ha) was 30%. The “Visual Growth Reduction (%) 14 DAA Obs” value ([13]; Cmpd 1 1.25 g ae/ha) was 0%, the “Visual Growth Reduction (%) 14 DAA Obs” value ([13]; Cmpd 1 2.5 g ae/ha) was 0% and the “Visual Growth Reduction (%) 14 DAA Obs” value ([13]; Cmpd 1 5 g ae/ha) was 0%. The “Visual Growth Reduction (%) 14 DAA Obs” value ([14]; Cmpd 1 1.25 g ae/ha) was 50%, the “Visual Growth Reduction (%) 14 DAA Obs” value ([14]; Cmpd 1 2.5 g ae/ha) was 90% and the “Visual Growth Reduction (%) 14 DAA Obs” value ([14]; Cmpd 1 5 g ae/ha) was 93%. For the same compound, the “Visual Growth Reduction (%) 14 DAA Obs” value ([15]; Cmpd 1 1.25 g ae/ha) was 20%, the “Visual Growth Reduction (%) 14 DAA Obs” value ([15]; Cmpd 1 2.5 g ae/ha) was 20% and the “Visual Growth Reduction (%) 14 DAA Obs” value ([15]; Cmpd 1 5 g ae/ha) was 40%. The “Visual Growth Reduction (%) 14 DAA Obs” value ([16]; Cmpd 1 1.25 g ae/ha) was 70%, the “Visual Growth Reduction (%) 14 DAA Obs” value ([16]; Cmpd 1 2.5 g ae/ha) was 80% and the “Visual Growth Reduction (%) 14 DAA Obs” value ([16]; Cmpd 1 5 g ae/ha) was 93%.
